As usually defined, the inhibition is the change of the read-out against control, counted positive when it falls.

Structures are written as SMILES.

The text below walks through data of patent EP0396400A1, “Microbial transformation product” (Merck & Co., Inc., priority 1989, dated 1990).

The assay relates to mouse T lymphocytes. The assay can be described thus: T-cell proliferation assay (ionomycin plus PMA induced T-cell stimulation, tritiated thymidine uptake). The class given is cell-based, C57B1/6 mice. To be noted: T-lymphocyte, 10 ng/ml, standard. The protocol: The principle of this assay is to measure the proliferation of mouse T lymphocytes stimulated with the combination of ionomycin plus PMA. A positive sample in this assay will inhibit T-cell proliferation, as indicated by reduced tritiated thymidine uptake.
Cells were pelleted by centrifugation at 1500 rpm for 8 minutes. Contaminating red cells were removed by treating the pellet with ammonium chloride lysing buffer (GIBCO) for 2 minutes at 4°C. Cold medium was added and cells were again centrifuged at 1500 rpm for 8 minutes. T lymphocytes were then isolated by separation of the cell suspension on nylon wool columns as follows: Nylon wool columns were prepared by packing approximately 4 grams of washed and dried nylon wool into 20 ml plastic syringes. The columns were sterilized by autoclaving at 250°F for 30 minutes. […]
The cell suspension was immediately distributed into 96 well flat-bottom microculture plates (Costar) at 200 µl/well. […] The proliferation of T lymphocytes was assessed by measurement of tritiated thymidine incorporation. […] Radioactivity of filter discs corresponding to individual wells was measured by standard liquid scintillation counting methods (Betacounter). Mean counts per minute of replicate wells were calculated and the results expressed as percent inhibition of tritiated thymidine uptake (proliferation) as follows: [formula]

As for `C=CC[C@@H]1/C=C(\C)C[C@H](C)C[C@H](OC)[C@H]2O[C@@](O)(C(=O)C(=O)N3CCCC[C@H]3C(=O)O[C@H](/C(C)=C/[C@@H]3CC[C@@H](O)[C@H](OC)C3)[C@H](C)[C@@H](O)CC1=O)[C@H](C)C[C@@H]2OC` [L-679,934], the inhibition at 0.01 µg/mL is 99%.
